From a melting point compilation (Tetko et al.; mined from patent text by program, amines drawn as free bases though some values may be those of a salt)

SMILES	melting point [°C]
c1cc2c(cn1)OCCN2	167 to 169
CC(=O)Nc1ccc([N+](=O)[O-])c(Cl)c1	134 to 136
Clc1ccc(-c2c[nH]cn2)cc1	146 to 148
C=CCOc1ccc(OC)c2ccccc12	30.5 to 32
CN1C(c2nnc(C3CCCCC3)o2)=C(OC(=O)c2ccccc2)c2ccccc2S1(=O)=O	157
COC(=N)NC(=O)CCl	123
O=C(O)c1n[nH]c(C(=O)O)c1[N+](=O)[O-]	325 to 327
CC1(C)[C@H](C=C(Cl)Cl)[C@@H]1C(=O)OCc1cccc(-c2ccc(Br)o2)c1 (relative stereo)	76.5 to 77
CN1CCC(Oc2cnccn2)(c2ccccc2)CC1	115 to 116
COc1ccc(Cn2c(=O)n([C@H]3CC[C@H](O)CC3)c3ccc(C(N)=O)cc32)cc1Cl	292
CCCCOCCOc1ccc(-c2ccc3c(c2)C=C(C(=O)Nc2ccc(S(=O)CCn4cnnc4)cc2)CCN3CC(C)C)cc1 (stereo not given)	168 to 170
COC(=O)[C@H]1CCc2c(OC)cccc2[C@@H]1O	87 to 88
CCCCCCCCCCCCCCCCCCOc1c(OCC(CC)CCCC)ccc2c1C(=O)c1ccccc1C2=O (stereo not given)	61 to 68
COC(=O)c1cc(O)c(O)c([N+](=O)[O-])c1	144 to 145
COc1ccc(C=CC(=O)c2ccc(OCC3CO3)cc2)cc1 (stereo not given)	85 to 87
O=C(C=Cc1cccc([N+](=O)[O-])c1)N1CCc2c([nH]c3ccccc23)C1c1ccc2c(c1)CCO2 (stereo not given)	174 to 176
CC(C)(C)OC(=O)[C@@H]1CCC(=S)N1Cc1ccccc1	72 to 78
CCC(CCOc1ccc(-c2ccc(C(=O)O)cc2)cc1-c1ccc2c(c1)C(C)(C)CCC2(C)C)NC1CC1 (stereo not given)	161
NC(=O)CC1CCC(OCc2ccccc2)c2sccc21 (stereo not given)	139 to 143
c1cc(C2NCCc3sccc32)ccn1 (stereo not given)	81.8 to 83.8
CC(C)C[C@H](NC(=O)c1ccc2c(c1)Nc1ccccc1S2)C(=O)N[C@H]1CCOC1OC(=O)N1CCOCC1 (stereo not given in full)	165 to 167
N[C@]1(C(=O)O)[C@H]2[C@@H](C[C@H]1OCc1ccccc1)[C@@H]2C(=O)O	> 250

SMILES	melting point [°C]
CC1c2ccccc2-c2ccccc2N1S(=O)(=O)c1ccc(O)c(C(=O)O)c1 (stereo not given)	225 to 230
SCCC1c2ccccc2-c2ccccc21	38 to 40
Brc1cccc(P(c2ccccc2)c2ccccc2)n1	81
CN(Cc1ccc(NC(=O)C2=Cc3cc(-c4ccc(C(C)(C)C)cc4)ccc3OCC2)cc1)C1CCOCC1	193 to 194
CC(=O)OCC(=O)C1(O)C(C)CC2C3CC(C)C4=CC(=O)CCC4(C)C3=CCC21C (stereo not given)	197 to 199
O=C(c1cc(-c2ccccc2)c(=O)n2c1-c1ccccc1CN2)N1CCOCC1	254 to 257
COc1ccc2c(c1)[C@H]1CN(C)CC[C@@H]1CC2=O (relative stereo)	> 250
O=C(C=Cc1cccnc1)NCCCCC1CCN(C(=O)c2cccc3c2-c2ccccc2C3=O)CC1	80 to 82
COc1ccc(NC(=O)Nc2c(Cl)cccc2Cl)cc1OC1CCCC1	203 to 204
CC(C)(C)OC(=O)NCC(CC(=O)Nc1ccccc1)c1ccc(Cl)cc1 (stereo not given)	165 to 167
O=C(Nc1cccc(Cl)c1)C1C(=O)Sc2ccc(Cl)cc21 (stereo not given)	160 to 163
CCOC(=O)Nc1nc(C)c(-c2nc3ccccc3c(=O)n2-c2cccc(C)c2)s1	210 to 211
CCCCC(=O)c1ccc(OCCCC(=O)O)c(Cl)c1Cl	92 to 94
CC(C)=CCCC(C)=CCOc1ccc(C(=O)NCCc2ccccn2)cc1	67 to 69
COc1cccc(C23CCN(C)CC2Cc2c([nH]c(C(=O)NCc4ccccc4)c2C)C3)c1 (stereo not given)	162 to 164
COC(=O)c1cccc(-c2ccccc2OC)c1	92 to 93
OCCC1(CCO)c2ccccc2Oc2ccccc21	144 to 145
CC1C(=O)CCC2(C)C1CCC1C3CCC(=Cc4ccccc4Cl)C3(C)CCC12 (stereo not given)	205 to 208
Cc1ccc(Cl)c2nc3cccc(C(=O)NCCCN(C)CCCNC(=O)c4cccc5nc6c(Cl)ccc(C)c6nc45)c3nc12	200 to 202
O=C1c2cc([N+](=O)[O-])ccc2CCn2cccc21	190 to 192
CO/N=C(/C(C)=O)C(=O)OC(C)(C)C	80 to 85
CC(C)(C)C(=O)C=Cc1ccc(Cl)cc1	83 to 84

Further lines, results first:

melting point [°C]	SMILES
190 to 193	COc1ccc(C(Sc2cc(Oc3ccc(F)cc3)ccc2N)C(O)C(=O)O)cc1 (stereo not given)
204	Fc1cccc(COc2ccc(Nc3ncnc4sc(C#Cc5nccs5)cc34)cc2Cl)c1
148	CN=C1SCC(O)(c2ccc(Cl)c(S(=O)(=O)NCC(C)OC)c2)N1C (stereo not given)
231	Cc1cc(-c2cc(C(F)F)n3ncc(-c4nc(-c5ccc(N)nc5)no4)c3n2)ccc1C(F)(F)F
137 to 139	CCCCc1ccc(C(=O)NCc2cccc3c2C(=O)N(C2CCC(=O)NC2=O)C3=O)nc1 (stereo not given)
171 to 172	CCC(=S)NC[C@H]1CN(c2ccc(N3CCN(C(=O)COc4ccccc4)CC3)c(F)c2)C(=O)O1
85 to 86	c1ccc2cc(Cc3nc4cc(CCC5OCCO5)ccc4o3)ccc2c1
96 to 97	CCOC(=O)c1cccc(-c2cccc3cc(CBr)sc23)c1
244 to 248	Cc1sc(-c2ccc([N+](=O)[O-])cc2)nc1O
> 250	O=C1CN(c2ccc(OC(F)(F)C(F)F)cc2)C(=O)CN1
51	COc1ccc(OCCCCCCCc2cc(C)no2)c([N+](=O)[O-])c1
281 to 283	CCOc1c(NCc2c(C)cccc2C)c(=O)c1=O
138 to 140	Clc1ccc(C2=CCc3cc(Br)cnc3O2)cc1Cl
152 to 153	COc1ccc2c(N(C)CCc3ccccn3)noc2c1
190	CCOC(=O)Nc1ccc(NC(=O)OCc2ccccc2)c(O)c1
144 to 148	Fc1ccc([C@@]2(Cn3nc[nH]c3=S)O[C@@H]2c2ccccc2F)c(F)c1 (relative stereo)
171 to 172	Nc1cccc(-c2cnc(N)nc2)c1
151 to 152	CCc1sc2nc(=NS(=O)(=O)c3ccc(C)cc3)sn2c1-c1ccc2c(c1)CCCC2
108 to 110	O=C1NC(=O)C(c2cn3c4c(cccc24)CCC3)C1c1cccc(O)c1 (stereo not given)

melting point [°C]	SMILES
70 to 71	Cc1ccccc1C(=O)Nc1cccc(C(C)C)c1
63 to 64	COC(=O)c1ccc(C(F)(F)F)[nH]c1=O
135 to 137	CCc1c(C)nc2n(c1=O)C(C)CCC2=NNc1ccccc1 (stereo not given)
127 to 131	Cc1ccc(-c2ccc(S(C)(=O)=O)cc2)n1-c1ccc(-c2ccco2)c(Cl)c1
171 to 172	CCOP(=O)(OCC)C(O)c1ccc(NC(=O)CCc2oc(-n3cnc4ccccc43)nc2-c2ccc(Cl)cc2)cc1 (stereo not given)
76 to 77	CN(C)c1cccc(CC(=O)C(F)(F)c2ccccc2)c1
161 to 163	CC(=O)CC(=O)OC(C)N=C(O)c1cc(C(=N)O)c(C(=O)O)cc1C(=O)O (stereo not given)
143 to 145	CCOC(=O)NNc1cc(C)c(-c2ccccc2)nn1
203	CN1C(C)(C)CC(OC(=O)CCC(C)(c2ccc(O)c(C(C)(C)C)c2)c2ccc(O)c(C(C)(C)C)c2)CC1(C)C
106 to 108	CCN(CC)Cc1ccc2[nH]c(C)c(C(=O)OCc3ccccc3)c2c1
88 to 89	CCc1c(Cl)c(Oc2ncc(C(F)(F)F)cc2Cl)nn1C(=O)NC
132 to 133	CC(=O)OC1CSC(Oc2cncc(-c3ccc(CO)cc3)c2)C(OC(C)=O)C1OC(C)=O (stereo not given)
144 to 146	Cc1c(F)c(Br)cc(Br)c1C(=O)O
154 to 155	Clc1nc(C(Cl)(Cl)Cl)nc2ccc(I)cc12
136 to 139	Cc1nc(-n2cnn(Cc3ccc(F)cc3)c2=O)sc1-c1nn[nH]n1
108 to 110	CC(=O)Oc1cc(C(=O)Cl)cc(OC(C)=O)c1OC(C)=O
173	NNc1nccc(-c2ccc3c(ccn3-c3ccccn3)c2)c1Cl
278 to 280	CC1=C(C#N)C(c2cccc([N+](=O)[O-])c2)n2ccnc2N1 (stereo not given)
250 to 254	Cc1cc(Nc2ccc(NC(=O)c3ccc(Nc4ccnc5ccc(Cl)cc45)cc3)cc2)nc(N)n1

melting point [°C]	SMILES
295 to 296	CC(=O)Nc1ccc2c(c1)-n1cc(C(=O)O)nc1CO2
81 to 83	CSc1nc(CCC(F)(F)F)nc2sc(C)cc12
124 to 126	COc1cc2[nH]c(SCc3nccc(N4CCOCC4)c3F)nc2cc1C
66 to 68	CC(=O)Oc1cccc(C=C2CCCc3cc(C)cnc32)c1
38 to 40	COC(=O)c1cnc(C)n1C
112 to 115	CCCCc1c(C(=O)C(Cl)(Cl)Cl)c2ccccc2n1C
85 to 87	COc1ccc2cc(CO)ccc2c1Br
166 to 168	CC(C)(C)c1ccc(CN2CCN(Cc3ccc(NS(C)(=O)=O)cc3)C2=O)cc1
88 to 91	Fc1cc(Cl)c(OC2CCCC2)cc1-n1nc2c(c1Cl)CCCC2
> 300	CCCn1cc2c(C3C(=O)Nc4ccc(Br)cc43)ncnc2n1 (stereo not given)
110 to 113	CCN(CC)CCC1CCCN(C(=O)N2c3ccccc3NC(=O)c3cccnc32)C1 (stereo not given)
118 to 120	Cc1c(NC(=O)C(CSC(=O)CC(C)C)Cc2ccccc2)cccc1C(=O)O (stereo not given)
118 to 120	CC(C)CC(NC(=O)OCc1ccccc1)C(=O)Nc1nncs1 (racemic)
90 to 91	CCn1c(C(F)(F)F)cc(=O)n(-c2cc(C(=O)OC3CCCC3)c(Cl)cc2F)c1=O
198 to 201	CCCN(CCC)CCc1ccc(OC)c2[nH]nc(O)c12
79 to 81	c1cc(-c2nc(COC3CCCCO3)no2)sc1CN1CCCCCC1 (stereo not given)
240 to 245	CC(C)(C)C(=O)c1sc(NC(=O)c2ccncc2)nc1-c1ccco1
155 to 156	COC(=O)c1cc(-c2ccc(OCc3cccnc3)cc2O[C@H](CCC(=O)O)c2ccccc2C)n[nH]1
